Source: US20110014174A1, “Lysozyme, A Novel Vasodilator of Sepsis that can be inhibited by a Peroxidase and Hydroxyl Radical Scavengers” (UNIVERSITY OF MANITOBA, priority 2007, published 2011)

Tests used:
[1] = tested on: Lzm-S-induced carotid artery vasodilation; experiment: Prevention of Lzm-S-induced vasodilation by pretreatment agents in the carotid artery ring preparation; parameters: species or system canine; conditions: for contraction after Lzm-S relative to the post-indomethacin plateau: indomethacin 10^−6 mol/L treated group (n=5); for inhibition of Lzm-S-induced vasodilation (words): pretreatment with the agent, human Lzm-S 6.7×10^−7 mol/L, phenylephrine contracted ring; for contraction after Lzm-S, % of the butanol-plateau: n-butanol pretreated
[2] = tested on: phenylephrine contracted canine carotid artery ring preparation; experiment: Contraction force and vasorelaxation in phenylephrine contracted canine carotid artery ring preparation; conditions: before Lzm-S

SMILES | contraction after Lzm-S relative to the post-indomethacin plateau ([1]; 5 minutes) | contraction after Lzm-S relative to the post-indomethacin plateau ([1]; 15 minutes) | contraction after Lzm-S relative to the post-indomethacin plateau ([1]; 30 minutes) | inhibition of Lzm-S-induced vasodilation (words) [1] | force over 30 minutes when indomethacin was added ([2]; indomethacin 10^−6 mol/L after phenylephrine) | contraction after Lzm-S, % of the butanol-plateau ([1]; 5 minutes) | contraction after Lzm-S, % of the butanol-plateau ([1]; 15 minutes) | contraction after Lzm-S, % of the butanol-plateau ([1]; 30 minutes) | force after the alcohol was added, % of the phenylephrine-plateau response ([2]; n-butanol (10^−7 mol/L))
COc1ccc2c(c1)c(CC(=O)O)c(C)n2C(=O)c1ccc(Cl)cc1 [indomethacin] | 79±11% | 57±24% | 39±25% | did not Prevent Vasodilation | 5.6±0.5 grams |  |  |  | 
CCCCO [n-butanol] |  |  |  | no inhibitory effect |  | 84±9% | 62±21% | 23±27% | 61±17%
